Assay results reported in patent US9255100B2 (BAYER INTELLECTUAL PROPERTY GMBH, priority 2010, dated 2016).

target: T1, N-terminally GST-tagged human full length recombinant Mps-1 kinase (Homo sapiens, UniProt P33981); test: Mps-1 kinase assay (TR-FRET); assay type: biochemical; settings: 10 μM ATP, 1 μM peptide substrate, 60 min at 22° C., read-out: Mps1 IC50
T1 construct: N-terminally GST-tagged human full length recombinant Mps-1 kinase; purchased Invitrogen, Karslruhe, Germany PV4071
T1 sequence (P33981 1-857): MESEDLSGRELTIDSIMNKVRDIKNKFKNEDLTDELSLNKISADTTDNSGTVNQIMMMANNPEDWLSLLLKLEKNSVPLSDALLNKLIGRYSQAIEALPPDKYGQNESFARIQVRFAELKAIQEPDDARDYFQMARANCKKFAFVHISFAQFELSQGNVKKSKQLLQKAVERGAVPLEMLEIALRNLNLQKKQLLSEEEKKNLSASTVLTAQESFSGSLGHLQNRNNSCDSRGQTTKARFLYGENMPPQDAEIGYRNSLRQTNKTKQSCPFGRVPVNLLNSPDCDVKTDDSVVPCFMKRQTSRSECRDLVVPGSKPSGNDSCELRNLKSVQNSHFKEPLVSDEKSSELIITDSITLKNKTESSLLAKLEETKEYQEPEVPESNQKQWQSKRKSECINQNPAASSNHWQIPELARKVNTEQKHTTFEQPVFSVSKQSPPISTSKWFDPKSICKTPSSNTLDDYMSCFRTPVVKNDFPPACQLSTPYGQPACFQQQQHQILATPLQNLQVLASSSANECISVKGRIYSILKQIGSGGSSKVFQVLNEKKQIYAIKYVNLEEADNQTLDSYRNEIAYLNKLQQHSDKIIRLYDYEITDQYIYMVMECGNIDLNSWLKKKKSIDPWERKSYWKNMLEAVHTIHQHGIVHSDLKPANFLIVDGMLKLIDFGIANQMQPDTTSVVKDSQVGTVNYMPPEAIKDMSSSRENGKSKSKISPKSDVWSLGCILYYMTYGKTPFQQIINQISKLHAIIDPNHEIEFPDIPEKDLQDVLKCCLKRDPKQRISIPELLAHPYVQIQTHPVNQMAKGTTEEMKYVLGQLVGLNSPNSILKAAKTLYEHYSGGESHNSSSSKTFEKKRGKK
How it was run: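 Read-out: TR-FRET from Europium-labelled anti-phospho(Ser/Thr) antibody to SA-XLent after 1 h detection incubation at 22° C. Inhibition of kinase activity measured.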

Q: Which IC50 does the source give for `Cc1cc(-c2cnc3c(NCC4CC[S+]([O-])CC4)cc(Sc4ccccc4)nn23)ccc1C(=O)NC1CC1` (stereo not drawn) [Example 303B, N-cyclopropyl-2-methyl-4-[8-({[(trans)-1-oxidotetrahydro-2H-thiopyran-4-yl]methyl}amino)-6-(phenylsulfanyl)imidazo[1,2-b]pyridazin-3-yl]benzamide] here?
A: Its IC50 is 0.2 nM.

same assay, conditions: Mps1 IC50 [nM], 10 μM ATP, 1 μM peptide substrate, 60 min at 22° C.

Q: How did the IC50 turn out when `Cc1cc(-c2cnc3c(NCCC(F)(F)F)cc(-c4ccncc4)nn23)ccc1C(=O)NC1CC1` [Example 228, N-cyclopropyl-2-methyl-4-{6-(pyridin-4-yl)-8-[(3,3,3-trifluoropropyl)amino]imidazo[1,2-b]pyridazin-3-yl}benzamide] was run?
A: Its IC50 is 0.6 nM.

Q: With `Cc1ccc(F)c(Nc2cc(NCCC(F)(F)F)c3ncc(-c4ccc(C(=O)NC5CC5)c(C)c4)n3n2)c1` [Example 367, N-cyclopropyl-4-{6-[(2-fluoro-5-methylphenyl)amino]-8-[(3,3,3-trifluoropropyl)amino]imidazo[1,2-b]pyridazin-3-yl}-2-methylbenzamide] as the compound, how does the IC50 read?
A: The IC50 was 0.1 nM.

Q: Which IC50 does the source give for `Cc1cc(-c2cnc3c(NCC4CCSCC4)cc(Sc4cccc(F)c4)nn23)ccc1C(=O)NC1CC1` [Example 285, N-cyclopropyl-4-{6-[(3-fluorophenyl)sulfanyl]-8-[(tetrahydro-2H-thiopyran-4-ylmethyl)amino]imidazo[1,2-b]pyridazin-3-yl}-2-methylbenzamide] here?
A: Its IC50 is 0.4 nM.

Q: For `Cc1cc(-c2cnc3c(NCC(C)(C)O)cc(Nc4cccc(C(C)C)c4)nn23)ccc1C(=O)NC1CC1` [Example 385, N-cyclopropyl-4-{8-[(2-hydroxy-2-methylpropyl)amino]-6-[(3-isopropylphenyl)amino]imidazo[1,2-b]pyridazin-3-yl}-2-methylbenzamide], which IC50 is on record?
A: The IC50 was 0.9 nM.

Q: For `Cc1cc(-c2cnc3c(NCC(C)(C)O)cc(OCc4ccccc4)nn23)ccc1C(=O)NC1CC1` [Example 326, 4-{6-(benzyloxy)-8-[(2-hydroxy-2-methylpropyl)amino]imidazo[1,2-b]pyridazin-3-yl}-N-cyclo-propyl-2-methylbenzamide], which IC50 is on record?
A: The IC50 was 1.9 nM.

Q: `CC(C)CNc1cc(-c2ccc3c(c2)OCO3)nn2c(-c3ccc(C(=O)NC4CC4)cc3)cnc12` [Example 136, 4-{6-(1,3-Benzodioxol-5-yl)-8-[(2-methylpropyl)amino]imidazo[1,2-b]pyridazin-3-yl}-N-cyclopropylbenzamide] was tested. Which IC50 did it give?
A: Its IC50 is 4 nM.

Q: `Cc1cc(-c2cnc3c(NCC(C)(C)O)cc(Sc4nncn4C)nn23)ccc1C(=O)NC1CC1` [Example 413, N-cyclopropyl-4-{8-[(2-hydroxy-2-methylpropyl)amino]-6-[(4-methyl-4H-1,2,4-triazol-3-yl)sulfanyl]imidazo[1,2-b]pyridazin-3-yl}-2-methylbenzamide] was tested. Which IC50 did it give?
A: The IC50 was 45.7 nM.

Q: With `Cc1cc(-c2cnc3c(NCCC(F)(F)F)cc(Nc4ccc(F)nc4)nn23)ccc1C(=O)NC1CC1` [Example 440, N-cyclopropyl-4-{6-[(6-fluoropyridin-3-yl)-amino]-8-[(3,3,3-trifluoropropyl)amino]imidazo[1,2-b]pyridazin-3-yl}-2-methylbenzamide] as the compound, how does the IC50 read?
A: Its IC50 is 0.1 nM.

Q: `Cc1cc(-c2cnc3c(NCC4CN(C)C4)cc(Oc4cccc(F)c4F)nn23)ccc1C(=O)NC1CC1` [Example 543, N-cyclopropyl-4-[6-(2,3-difluorophenoxy)-8-{[(1-methylazetidin-3-yl)methyl]amino}imidazo[1,2-b]pyridazin-3-yl]-2-methylbenzamide] was tested. Which IC50 did it give?
A: The IC50 was 0.2 nM.

Q: How did the IC50 turn out when `Cc1cc(-c2cnc3c(NCCC(F)(F)F)cc(Nc4c(O)cccc4F)nn23)ccc1C(=O)NC1CC1` [Example 478, N-cyclopropyl-4-{6-[(2-fluoro-6-hydroxyphenyl)amino]-8-[(3,3,3-tri-fluoropropyl)amino]imidazo[1,2-b]pyridazin-3-yl}-2-methylbenzamide] was run?
A: Its IC50 is 0.3 nM.

Q: How did the IC50 turn out when `Cc1cc(-c2cnc3c(NCCC(F)(F)F)cc(Oc4ccccc4N)nn23)ccc1C(=O)NC1CC1` [Example 395, 4-{6-(2-aminophenoxy)-8-[(3,3,3-trifluoropropyl)amino]imidazo[1,2-b]pyridazin-3-yl}-N-cyclopropyl-2-methylbenzamide] was run?
A: The IC50 was 0.3 nM.

Q: `CNC(=O)c1ccc(-c2cnc3c(NCCOC)cc(Oc4ccccc4C)nn23)cc1C` [Example 583, 4-{8-[(2-methoxyethyl)amino]-6-(2-methylphenoxy)imidazo[1,2-b]pyridazin-3-yl}-N,2-dimethylbenzamide] was tested. Which IC50 did it give?
A: The IC50 was 6.9 nM.

Q: With `Cc1cc(-c2cnc3c(NCC(C)(C)N4CCOCC4)cc(Oc4cccc(F)c4)nn23)ccc1C(=O)NC1CC1` [Example 498, N-cyclopropyl-4-[6-(3-fluoro-phenoxy)-8-{[2-methyl-2-(morpholin-4-yl)propyl]amino}imidazo[1,2-b]pyridazin-3-yl]-2-methylbenzamide] as the compound, how does the IC50 read?
A: Its IC50 is 0.3 nM.

Q: Which IC50 does the source give for `Cc1cc(-c2cnc3c(NCCC(F)(F)F)cc(Nc4ccc(F)c(F)c4)nn23)ccc1C(=O)NC1CC1` [Example 373, N-cyclopropyl-4-{6-[(3,4-difluorophenyl)amino]-8-[(3,3,3-trifluoropropyl)amino]imidazo[1,2-b]pyridazin-3-yl}-2-methylbenzamide] here?
A: Its IC50 is 0.2 nM.

Q: `CCNC(=O)c1ccc(-c2cnc3c(NCCC(F)(F)F)cc(Oc4ccc(O)cc4F)nn23)cc1C` [Example 561, N-ethyl-4-{6-(2-fluoro-4-hydroxyphenoxy)-8-[(3,3,3-trifluoropropyl)amino]imidazo[1,2-b]pyridazin-3-yl}-2-methylbenzamide] was tested. Which IC50 did it give?
A: The IC50 was 0.6 nM.

Q: With `Cc1cc(-c2cnc3c(NCC(C)C)cc(Sc4ccccc4)nn23)ccc1C(=O)NC1CC1` [Example 197, N-cyclopropyl-2-methyl-4-{8-[(2-methylpropyl)amino]-6-(phenylsulfanyl)imidazo[1,2-b]pyridazin-3-yl}benzamide] as the compound, how does the IC50 read?
A: Its IC50 is less than 1 nM.

Q: For `Cc1cc(-c2cnc3c(NCC(C)(C)O)cc(Sc4ccccc4F)nn23)ccc1C(=O)NC1CC1` [Example 70, N-cyclopropyl-4-{6-[(2-fluorophenyl)sulfanyl]-8-[(2-hydroxy-2-methylpropyl)amino]imidazo[1,2-b]pyridazin-3-yl}-2-methylbenzamide], which IC50 is on record?
A: The IC50 was 0.3 nM.

Q: For `Cc1cc(-c2cnc3c(NCCC(F)(F)F)cc(Oc4cccc(F)c4N)nn23)ccc1C(=O)NC1CC1` [Example 477, 4-{6-(2-amino-3-fluoro-phenoxy)-8-[(3,3,3-tri-fluoropropyl)amino]imidazo[1,2-b]pyridazin-3-yl}-N-cyclopropyl-2-methylbenzamide], which IC50 is on record?
A: Its IC50 is 0.3 nM.

Q: Which IC50 does the source give for `CC(C)CNc1cc(-c2cccc3cnccc23)nn2c(-c3ccc(C(=O)NC4CC4)cc3)cnc12` [Example 118, N-cyclopropyl-4-{6-(isoquinolin-5-yl)-8-[(2-methylpropyl)amino]imidazo[1,2-b]pyridazin-3-yl}benzamide] here?
A: The IC50 was 4.3 nM.

Q: Which IC50 does the source give for `Cc1cc(-c2cnc3c(NCCCN4CCCCC4)cc(Oc4cccc(F)c4)nn23)ccc1C(=O)NC1CC1` [Example 505, N-cyclopropyl-4-[6-(3-fluoro-phenoxy)-8-{[3-(piperidin-1-yl)propyl]amino}imidazo[1,2-b]pyridazin-3-yl]-2-methyl-benzamide] here?
A: Its IC50 is 0.2 nM.

Q: Which IC50 does the source give for `CCNC(=O)c1ccc(-c2cnc3c(NCCC(F)(F)F)cc(Oc4cc(F)ccc4C)nn23)cc1C` [Example 603, N-ethyl-4-{6-(5-fluoro-2-methylphenoxy)-8-[(3,3,3-trifluoropropyl)a-mino]imidazo[1,2-b]pyridazin-3-yl}-2-methylbenzamide] here?
A: Its IC50 is less than 1 nM.

Q: How did the IC50 turn out when `Cc1cc(-c2cnc3c(NCC(C)(C)O)cc(Sc4cc(F)ccc4F)nn23)ccc1C(=O)NC1CC1` [Example 248, N-cyclopropyl-4-{6-[(2,5-difluorophenyl)sulfanyl]-8-[(2-hydroxy-2-methylpropyl)amino]imidazo[1,2-b]pyridazin-3-yl}-2-methylbenzamide] was run?
A: The IC50 was 0.5 nM.

Q: `Cc1cc(-c2cnc3c(NCC(C)(C)O)cc(Oc4cccc(Cl)c4)nn23)ccc1C(=O)NC1CC1` [Example 85, 4-{6-(3-Chlorophenoxy)-8-[(2-hydroxy-2-methylpropyl)amino]imidazo[1,2-b]pyridazin-3-yl}-N-cyclopropyl-2-methylbenzamide] was tested. Which IC50 did it give?
A: Its IC50 is 0.2 nM.

Q: How did the IC50 turn out when `CC(C)CNc1cc(-c2ccc(F)cc2)nn2c(-c3ccc(C(=O)NC4CC4)cc3)cnc12` [Example 104, N-cyclopropyl-4-{6-(4-fluorophenyl)-8-[(2-methylpropyl)amino]imidazo[1,2-b]pyridazin-3-yl}benzamide] was run?
A: Its IC50 is less than 1 nM.

Q: `Cc1cc(-c2cnc3c(NCC(C)(C)N)cc(Oc4cccc(F)c4)nn23)ccc1C(=O)NC1CC1` [Example 314, 4-{8-[(2-amino-2-methyl-propyl)amino]-6-(3-fluorophenoxy)imidazo[1,2-b]pyridazin-3-yl}-N-cyclopropyl-2-methyl-benzamide] was tested. Which IC50 did it give?
A: The IC50 was 0.2 nM.
